Laboratory results from patent publication US9045482B2, “Pyrido[4,3-B]indoles and methods of use” (Medivation Technologies, Inc., priority 2009, dated 2015).

Target: T1, human recombinant histamine H2 receptor (Homo sapiens, UniProt P25021)
T1 construct: expressed in transfected cells; host or cells: Chinese hamster ovary (CHO) K1 cells
Experiment: Histamine H2 radioligand binding (Aminopotentidine)
Conditions: read-out: Binding data (Percentage Inhibition) Histamine Binding H2
Method: To evaluate in radioligand binding assays the activity of compounds of the invention, human recombinant histamine H2 receptor expressed in Chinese hamster ovary (CHO) K1 cells [Ruat, M., Proc. Natl. Acad. Sci. USA. (1990), 87(5):1658] in a 50 mM Phosphate buffer, pH 7.4 was used. Compounds of the invention were incubated with 0.1 nM […] for 120 min at 25° C. Non-specific binding was estimated in the presence of 3 μM Tiotidine. Receptor proteins were filtered and washed, the filters were then counted to determine […] specifically bound. Compounds were screened at 1 μM or lower, using 1% DMSO as vehicle. Biochemical assay results are presented as the percent inhibition of specific binding in Table 2.

T1 sequence (P25021 whole entry): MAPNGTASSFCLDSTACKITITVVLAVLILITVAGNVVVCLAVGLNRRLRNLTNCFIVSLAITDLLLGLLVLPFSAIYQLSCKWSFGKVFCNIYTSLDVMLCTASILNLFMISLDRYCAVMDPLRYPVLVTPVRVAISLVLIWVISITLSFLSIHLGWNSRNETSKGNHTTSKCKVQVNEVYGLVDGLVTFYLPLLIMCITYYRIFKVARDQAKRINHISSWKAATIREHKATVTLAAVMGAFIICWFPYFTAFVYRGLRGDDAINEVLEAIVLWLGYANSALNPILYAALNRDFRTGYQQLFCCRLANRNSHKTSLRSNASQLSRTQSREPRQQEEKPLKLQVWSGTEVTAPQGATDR

SMILES	inhibition at 1 µM
Fc1ccc(CCn2c3c(c4cc(Cl)ccc42)C2CCCN2CC3)cc1 (centres unmarked) [Compound 1, 7-(4-fluorophenethyl)-10-chloro-2,3,5,6,7,11c-hexahydro-1H-indolizino[7,8-b]indole]	15%
Fc1ccc(CCn2c3c(c4cc(Cl)ccc42)CN2CCCC2C3)cc1 (centres unmarked) [Compound 2, 10-(4-fluorophenethyl)-7-chloro-2,3,5,10,11,11a-hexahydro-1H-indolizino[7,6-b]indole]	17%
